{
  "source": "paper PMC12610274",
  "about": "“Identification of Marrubiin as a Cathepsin C Inhibitor for Treating Rheumatoid Arthritis” (Molecules, 2025)",
  "key": {"Cat G": {"test_system": "Cat G", "experiment": "NSPs activity in U937 cells after 5 days of treatment, Cat G", "format": "cell-based, human", "conditions": "U937, 10 μM", "procedure": "U937 cells in the logarithmic growth phase were collected and equally divided into six portions. Four of these portions were treated with DMSO solutions of the test compound at varying concentrations to achieve final concentrations of 1.25, 2.5, 5, and 10 μM, respectively. An equal volume of DMSO was added to one portion as a blank control, while another portion treated with a DMSO solution of AZD7986 served as a positive control. The cells were cultured under standard U937 conditions for 5 consecutive days, with daily medium changes and fresh compound treatments administered using the same protocol. Following 5 days of treatment, cells were harvested, washed twice thoroughly with phosphate-buffered saline, and lysed in phosphate-buffered saline containing 1% Triton X-100. The lysates were centrifuged to collect the supernatant, and protein concentrations were determined as previously described to ensure equal total protein loading across all samples. The prepared samples were stored at −20 °C until further analysis. Different assay buffers were prepared for diluting samples and measuring the activities of specific NSPs: a buffer containing 50 mM Tris and 750 mM NaCl (pH 7.4) was used for NE and PR3; a buffer containing 50 mM Tris, 750 mM NaCl, 5 mM EDTA (pH 7.4) was used for Cat G; and a buffer containing 25 mM MES, 50 mM NaCl, 5 mM DTT (pH 6.0) was used for CTSC. […]"}, "CTSC [1]": {"molecular_target": "CTSC (Homo sapiens, UniProt P53634)", "sequence (P53634 25-463)": "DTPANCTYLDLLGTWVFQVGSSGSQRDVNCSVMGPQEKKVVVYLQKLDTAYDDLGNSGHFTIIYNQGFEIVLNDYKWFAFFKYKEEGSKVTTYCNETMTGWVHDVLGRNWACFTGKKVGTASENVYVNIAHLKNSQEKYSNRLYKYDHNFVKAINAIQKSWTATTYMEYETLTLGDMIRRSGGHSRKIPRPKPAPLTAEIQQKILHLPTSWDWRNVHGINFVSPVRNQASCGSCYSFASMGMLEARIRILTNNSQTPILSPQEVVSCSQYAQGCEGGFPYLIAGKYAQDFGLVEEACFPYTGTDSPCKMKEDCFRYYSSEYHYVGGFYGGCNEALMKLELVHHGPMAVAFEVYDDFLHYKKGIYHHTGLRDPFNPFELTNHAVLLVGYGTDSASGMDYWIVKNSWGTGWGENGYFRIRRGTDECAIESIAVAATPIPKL", "experiment": "Cellular thermal shift assay (CETSA) in U937 cells", "format": "binding", "design": "endogenous in cells; host or cells: U937", "conditions": "DMSO control 49 °C", "procedure": "The Western blot experiments in this study were performed as described below. Cells in the logarithmic growth phase were collected in appropriate numbers according to different experimental purposes. After being thoroughly washed with phosphate-buffered saline and centrifuged, the cell pellets were resuspended in phosphate-buffered saline to obtain single-cell suspensions. Cells were fully lysed using RIPA buffer (Beyotime, P0013B) supplemented with EDTA-free protease and phosphatase inhibitor (Abcam, ab201120). Total cellular protein solutions were obtained after centrifugation to remove cell debris. The isolated proteins were quantified using the BeyoBCA protein assay kit (Beyotime, P0399M) following the operational protocol. The quantified protein samples were thoroughly mixed with protein loading buffer, boiled on a dry bath for 5 min, and then cooled to room temperature for Western blot analysis. […] Finally, enhanced chemiluminescent horseradish peroxidase substrate (Tanon Science & Technology Co., Ltd., Shanghai, China, 180-506) was used to visualize protein bands on a ChemiDoc XRS system (Bio-Rad Laboratories, Inc., Hercules, CA, USA), and the protein bands were quantified using Image Lab analysis software (Version 6.1) (Bio-Rad). […]"}, "CTSC [2]": {"molecular_target": "T1, CTSC (Rattus norvegicus, UniProt P80067)", "T1 construct": "from tissue; host or cells: serum of Sprague-Dawley rats (AIA model)", "T1 sequence (P80067 25-462)": "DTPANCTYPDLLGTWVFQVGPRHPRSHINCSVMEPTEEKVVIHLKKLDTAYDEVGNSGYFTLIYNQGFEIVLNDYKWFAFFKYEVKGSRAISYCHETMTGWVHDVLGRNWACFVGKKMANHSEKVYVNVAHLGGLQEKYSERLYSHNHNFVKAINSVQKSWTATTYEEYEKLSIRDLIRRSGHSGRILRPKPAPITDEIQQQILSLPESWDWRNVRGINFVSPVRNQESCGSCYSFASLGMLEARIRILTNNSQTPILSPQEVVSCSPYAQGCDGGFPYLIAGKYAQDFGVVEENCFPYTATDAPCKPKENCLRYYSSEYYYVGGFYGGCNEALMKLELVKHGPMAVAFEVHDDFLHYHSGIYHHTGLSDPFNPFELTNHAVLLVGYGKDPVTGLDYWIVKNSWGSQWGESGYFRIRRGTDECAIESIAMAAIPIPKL", "experiment": "AIA model, serum CTSC activity", "format": "in vivo, Sprague-Dawley rats", "conditions": "high dose 60 mg/kg gavage, 15 days", "procedure": "Thirty 4-week-old male Sprague-Dawley rats (weighing 120–130 g) were randomly divided into 6 groups (5 rats per group) after 1 week of adaptive feeding, namely the normal group, model group, low-dose experimental group (15 mg/kg), medium-dose experimental group (30 mg/kg), high-dose experimental group (60 mg/kg), and positive control group (30 mg/kg). Starting from Day 0 of the experiment, rats in the administration groups and model group were injected intradermally with 0.1 mL of CFA into the left hind paw to induce AIA, while rats in the normal group were injected intradermally with an equal volume (0.1 mL) of normal saline as a control. After 13 consecutive days of feeding, rats treated with CFA successfully developed typical AIA symptoms. […] During the experiment, the body weight, mental state, activity ability, hair color changes, and paw appearance changes of the rats were observed and recorded daily. In addition, on Day 0 of the experiment (baseline period), the basic paw volume of all rats was accurately measured using a plethysmometer, which served as a reference standard for subsequent evaluation of inflammation severity. From Day 13 to Day 28 of the experiment, the paw volume of the rats was measured repeatedly every 3 days. The degree of paw swelling was quantified by calculating the change in paw volume relative to the baseline. […] The cytokine levels in serum were measured. […]"}},
  "data": [
    {"smiles": "C[C@@H]1C[C@H]2OC(=O)[C@@]3(C)CCC[C@@](C)([C@@H]23)[C@@]1(O)CCc1ccoc1", "note": "[Marrubiin, marrubiin]", "values": [
      {"measurement": "Cat G activity, % of DMSO group", "setting": "Cat G", "result": 16.9, "unit": "%"},
      {"measurement": "temperature at which significant CTSC degradation occurred", "setting": "CTSC [1]; 10 μM", "result": "approximately 61 °C"},
      {"measurement": "temperature at which significant CTSC degradation occurred", "setting": "CTSC [1]; 20 μM", "result": "~67", "unit": "°C"},
      {"measurement": "serum CTSC activity, % of control group", "setting": "CTSC [2]", "result": "approximately 58%"}
    ]}
  ]
}
